Laboratory results as given in patent publication US8858917B2, “Methods for limiting spread of pulmonary infections” (priority 2002, dated 2014).
One block for each molecule: values may come before it. Numbered stars: 1 amine (or outer) side, 2 acyl side, 3 side chain; on linkers, the order of the positions; unused ones are H or OH. Bridge positions count the residues as written; N and C are the ends. Square brackets hold non-standard residues; d marks the D form. Peptide text beside a SMILES is read from it. X1 = CC(C)CCCCCCCCC[C@H](CC(=O)[*:1])O[*:2]

Columns and labels:
NIH 3T3 fibroblasts = conditions: 30% ethanol in 10% FBS DMEM for 10 seconds
HSV-1 and HSV-2 strains = conditions: cultured cells; cited from earlier work
HIV-1 (strain NL4-3) = conditions: pretreatment of virus; cited from earlier work
[1] = Dispersion / precipitation in ethanol; assay type: physicochemical; conditions: room temperature
[2] = tested on: viruses susceptible to its action; conditions: medium containing 5% fetal calf serum (FCS); cited from earlier work

SMILES: CCO [ethanol]
cell death after exposure (CMFDA staining) (NIH 3T3 fibroblasts): insufficient to cause cell death

SMILES: CCCCCCCCCCCCOS(=O)(=O)[O-].[Na+] [SLS, sodium lauryl sulfate]
inhibition of infectivities of various HSV-1 and HSV-2 strains (HSV-1 and HSV-2 strains): potent inhibitors
infectivity of HIV-1 to 1G5 cells after pretreatment (HIV-1 (strain NL4-3)): reduced its infectivity

concentration successfully dispersed in ethanol before sedimentation of aggregates [1]: up to 100 mg/mL
SMILES: CCCCCCCCCCCCCCCC(=O)OC[C@H](COP(=O)([O-])OCC[N+](C)(C)C)OC(=O)CCCCCCCCCCCCCCC [DPPC, dipalmitoyl phosphatidyl choline]

SMILES: CC(C)CCCCCCCCC[C@@H]1CC(=O)N[C@@H](CCC(=O)O)C(=O)N[C@@H](CC(C)C)C(=O)N[C@H](CC(C)C)C(=O)N[C@@H](C(C)C)C(=O)N[C@@H](CC(=O)O)C(=O)N[C@H](CC(C)C)C(=O)N[C@@H](CC(C)C)C(=O)O1 [surfactin] (EL[dL]VD[dL]L; linker N-C via X1)
concentration at which active [2]: 25 µM
